From PMC11187542, “Identification of fragments targeting SMYD3 using highly sensitive kinetic and multiplexed biosensor-based screening” (RSC Medicinal Chemistry, 2024)
“And” between values parts separate entries of the source, which are not always exact repeats. Equal values may be shown once.

Target: T1, SMYD3 (Homo sapiens, UniProt Q9H7B4)
T1 construct: Full length recombinant SMYD3 was produced as previously reported; made in house; host or cells: E. coli BL21(DE3), in some cases Rosetta 2
T1 sequence (Q9H7B4 1-428): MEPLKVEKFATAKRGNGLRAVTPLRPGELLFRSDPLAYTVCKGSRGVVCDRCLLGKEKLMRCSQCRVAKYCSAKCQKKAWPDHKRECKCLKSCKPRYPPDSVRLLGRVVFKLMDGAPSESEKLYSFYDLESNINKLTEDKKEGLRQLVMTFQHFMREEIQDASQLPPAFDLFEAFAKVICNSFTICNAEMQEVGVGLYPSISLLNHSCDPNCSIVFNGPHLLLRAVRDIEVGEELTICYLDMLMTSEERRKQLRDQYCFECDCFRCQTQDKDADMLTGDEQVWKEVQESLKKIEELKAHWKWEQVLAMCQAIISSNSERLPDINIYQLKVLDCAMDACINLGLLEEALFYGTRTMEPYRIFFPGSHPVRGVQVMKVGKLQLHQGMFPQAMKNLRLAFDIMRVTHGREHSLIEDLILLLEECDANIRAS
Experiment: X-ray crystallography of SMYD3-fragment complexes (co-crystallization and soaking)
Design: key to XRC: success or failure of crystallization in complex with SMYD3: The success (+) or failure (−) of crystallization in complex with SMYD3; The success (+) or failure (−) of crystallization in complex with SMYD3
Source text: To identify binding sites and binding modes, the fragment hits (Table 1) were used in both co-crystallization and soaking experiments to obtain SMYD3-fragment co-crystals for X-ray crystallographic analyses. Diffraction data of 1.6–1.9 Å maximum resolution were obtained for four fragments (Fig. 5). For data collection and refinement statistics, see ESI, ^† Table S1.
Four new sites were thus identified.
Polder (F0–Fc) maps (Fig. 5, right) were generated to establish whether the observed electron density features were more likely to represent background noise or to belong to bound fragments. These omit maps are generated upon exclusion of the ligand and surrounding solvent from the model, which aids in visualizing weak densities. […] For fragments FL01507, FL08580 and FL08619, a comparison of the maps obtained after refinement with a bound fragment with maps obtained upon their replacement with either glycerol or acetate, which were present in the crystallization or cryo-protectant solutions, respectively, was required.
8 mg mL^−1 of SMYD3 in storage buffer (TBS buffer containing 2 mM DTT) was pre-incubated for 4–8 hours with 5 mM of a respective fragment hit compound and 10% (v/v) DMSO. Subsequently, 1 μL of this solution was mixed with an equal volume of reservoir solution (100 mM Tris, 100 mM magnesium acetate, 15–17% PEG3350, pH 8.25–8.75) to create the drops for co-crystallization by hanging drop vapour diffusion performed at 20 °C. Needle-like co-crystals nucleated within 12 h of equilibration against the reservoir. In addition, crystals of SMYD3 obtained in ligand-free crystallization setups were soaked with fragment solution prior to freezing. All crystals were cryo-protected via brief immersion in reservoir solution supplemented with 10% (v/v) glycerol.
Diffraction data were collected at beamline ID23-1 of the European Synchrotron Radiation Facility (ESRF, Grenoble, France). Data were indexed, auto-processed, scaled and merged on-site using the implemented data processing routines and software. Fragment-associated electron density features were identified upon data analysis with the Pipedream system (version 1.4.0, Global Phasing Ltd, Cambridge, United Kingdom), which includes data processing with autoPROC,[14] molecular replacement with Phaser,[15] structure refinement with BUSTER version 2.10.4 (Global Phasing Ltd, Cambridge, United Kingdom), automated ligand fitting with Rhofit (Global Phasing Ltd, Cambridge, United Kingdom) and BUSTER post-refinement.[16] Refinement was done with Phenix,[17] and model building with Coot.[18] (F0–Fc) difference density maps for models, from which ligand atoms and surrounding water molecules were removed, were generated using Phenix.

Cn1cnc(S(N)(=O)=O)c1 [FL06268]
XRC: success or failure of crystallization in complex with SMYD3 (5 mM fragment co-crystallization or soaking): (+)
Site (binding site in SMYD3 crystal structure) (four sites defined (1–4, Fig. 6) plus active site): both the active site (green surface) and site 2 and 2 + active
